Reference: patent publication US6849596B1, “Regulatory/unfolding peptides of ezrin” (priority 1999, dated 2005)

What was measured:
[1] = system: antibody forming cells against sheep erythocytes (SRBC); assay: Antibody forming cells against sheep erythocytes (SRBC) in mice, plaque count; type: in vivo; settings: four days after SRBC, thirty mice per data point
Procedure: Activity of Hepreceptor Peptides Enhancing the Antibody-Dependent Cytotoxic Response in […] to Sheep Red Blood Cells (SRBC) in Mice
The influence of Hepreceptor peptides on the activation of antibody forming cells against sheep erythocytes (SRBC) in Mice (CBA-C57B1 Fi hybrids. 2 months old, weight 18-22 grams) was determined. Mice were first injected intraperitoneally using either 0.5 ml sterile saline as a control or Hepreceptor peptides in the same volume of saline. 30 minutes after the injection of Hepreceptor peptides, a cell suspension containing 5 million SRBC was administered intraperitoneally to each mouse. Four days after the immunisation, the mice were killed by cervical dislocation and the spleens were obtained aseptically. Each spleen was homogenised in 2 ml of Medium 199, then 100 microliters of this suspension was put into 1 ml of prepared agarose in Medium 199 (stored in water bath at 48° C.), SRBC suspension was added, resulting in a final concentration of 1% agarose. The Im1 of agarose-cell mixture was agitated then transferred to petri dish to set. When the agarose became solid, the petri dish was incubated for 1 hour at 37° C. then 0.5 ml of 1-in-20 diluted guinea pig serum in Medium 199 was added on top of agarose gel as a source of complement. The incubation was continued for another 1 hour. The dishes were then visualised using an 8×binocular microscope and the number of plaques counted (each plaque equivalent to one antibody secreting mouse spleen cell). The results were expressed both as the number of antibody secreting cells per one million nucleated spleen cells and the number of antibody secreting cells per whole spleen.
Averaged data (from thirty mice per data point) of the number of antibody forming cells per one million nucleated spleen cells. The data was re-based relative to 100 for each control group.

activated macrophages = assay: Induction of activated macrophages in mice (peritoneal exsudate); type: in vivo
Procedure: Groups of three mice (CDAxC57B1)F1 weighing 22-24 g were injected abdominally with each peptide solution of 1.0 microgram of peptide dissolved in 0.5 ml of physiological saline. After 24 hours the animals were killed using neck vertebrae dislocation and 5 ml of Hanks solution was injected into the abdomen. The abdomen was massaged for 30 seconds and then the peritoneal liquid was collected. The collected liquid was filtered using a nylon filter into siliconised tubes containing 1.5 mg/ml EDTA. The number of nucleus containing cells in […] of filtrate were then assessed under microscopic examination using a Nihon hemocytometer. The cells were pelleted by centrifugation for 5 minutes at 800 g, the pellet was resuspended in fetal calf serum, the cell suspension was dropped on to a glass microscope slide and dried then fixed in methanol and stained with Romanovski's colouring agent. Morphological analysis of the cells of the peritoneal exsudate were performed using an Opton optical microscope at 1600 magnifications. The number of lymphocytes, resting macrophages, activated macrophages, granulocytes and other cell types were assessed.

IL-8 = IL-8 production in human WBC; type: cell-based; settings: 48 hour incubation, without peptide 18900
Procedure: The suppressive effect of increasing concentrations of Rupe312, a Hepreceptor peptide, on the expression of IL-8 by human WBC after a 48 hour incubation at 37° C. was detected. IL-8 is a chemotactic factor that is produced in response to inflammatory stimulus which attracts and activates T cells, neutrophils, basophils, granulocytes but not monocyte/macrophages. The inhibition of IL-8 may play a role in the selective activity of Rupe 312 in activating monocytes macrophages. The measurement of IL-8 provides an assay for determining the activity of various Hepreceptor derived peptides.

KKRRETVERE (Hepreceptor peptide) [Rupe312]
number of antibody forming cells per one million nucleated spleen cells, re-based relative to 100 for control ([1]; IP injection 1 microgram per mouse): 317 | number of antibody forming cells per one million nucleated spleen cells, re-based relative to 100 for control ([1]; IP injection 10 micrograms per mouse): 267 | activity in increasing activated macrophages relative to HEP1 (activated macrophages; 1.0 microgram peptide/mouse): significantly more active than HEP1 | Activated macrophages as a percent of total number of cells (activated macrophages; 1.0 microgram peptide/mouse injected abdominally, after 24 hours, saline 1.9): 13.9% | IL-8 concentration in culture (IL-8; Rupe312 0.001 micrograms/ml): 13900 picrograms/ml | IL-8 concentration in culture (IL-8; Rupe312 0.003 micrograms/ml): 10700 picrograms/ml | IL-8 concentration in culture (IL-8; Rupe312 0.01 micrograms/ml): 8984 picrograms/ml | IL-8 concentration in culture (IL-8; Rupe312 0.03 micrograms/ml): 7869 picrograms/ml | IL-8 concentration in culture (IL-8; Rupe312 0.1 micrograms/ml): 6426 picrograms/ml
